Experimental data: paper PMC11308618, “Determinants of interactions of a novel next-generation gabapentinoid NVA1309 and mirogabalin with the Cavα2δ-1 subunit” (Molecular Brain, 2024)

Assays:
Cavα2δ-1 [1] = biological target: T1, Cavα2δ-1; experiment: SPR (Biacore) on immobilized peptide; assay type: binding, Oryctolagus cuniculus
T1 construct: gene CACNA2D1; chemically synthesized peptide surrounding the K615 locus ([…]; peptide P3)

Cavα2δ-1 [2] = tested on: T1, Cavα2δ-1; experiment: SPR (Biacore) on immobilized peptide; also […] lowers Cav2.[…] current in tsA201 cells, lost with R243A or K615A Cavα[…]δ-1; assay type: binding, Oryctolagus cuniculus

Structure (SMILES)	Kd (Cavα2δ-1 [1])	Kd (Cavα2δ-1 [2])
CCC1=C[C@@H]2[C@H](C1)C[C@]2(CN)Cc1nnn[nH]1 [NVA1309]	273 ± 101 µM	–
CCC1=C[C@@H]2[C@H](C1)C[C@]2(CN)CC(=O)O [mirogabalin]	–	161 ± 60 µM
